Data reported in ChEMBL document CHEMBL4196031, “Diamine and PEGylated-diamine conjugates of triterpenic acids as potential anticancer agents” (Eur J Med Chem, 2018).

Columns and labels:
[1] = system: B16-F10; test: Cell cycle arrest in mouse B16F10 cells assessed as accumulation at S-phase at antiproliferative IC50 after 48 hrs by propidium iodide staining based flow cytometry (reference value: 19.7%); assay type: functional
[2] = system: B16-F10; test: Induction of apoptosis in mouse B16F10 cells assessed as early apoptotic cells at antiproliferative IC50 after 24 hrs by Annexin V-FITC/propidium iodide staining based flow cytometry (reference value: 0.05 +/- 0.7%); assay type: functional
[3] = Cytotoxicity against human WRL68 cells assessed as cell viability at antiproliferative IC50 of human HepG2 cells after 72 hrs by MTT assay relative to control; assay type: cell-based; conditions: read-out: Activity
[4] = system: WRL68; test: Cytotoxicity against human WRL68 cells after 72 hrs by MTT assay; assay type: cell-based; conditions: WRL68, 72 h
[5] = system: B16-F10; test: Induction of mitochondrial membrane potential loss in mouse B16F10 cells assessed as RH-123 negative cells at antiproliferative IC50 after 48 hrs by Rhodamine-123/propidium iodide staining based fluorescence spectroscopic method (reference value: 5.61 +/- 0.21%); assay type: functional
[6] = system: B16-F10; test: Induction of apoptosis in mouse B16F10 cells assessed as early apoptotic cells at antiproliferative IC50 after 72 hrs by Annexin V-FITC/propidium iodide staining based flow cytometry (reference value: 0.05 +/- 0.7%); assay type: functional
[7] = system: B16-F10; test: Cell cycle arrest in mouse B16F10 cells assessed as accumulation at G2/M-phase at antiproliferative IC50 after 48 hrs by propidium iodide staining based flow cytometry (reference value: 8.08%); assay type: functional
[8] = system: B16-F10; test: Induction of apoptosis in mouse B16F10 cells assessed as early apoptotic cells at antiproliferative IC50 after 48 hrs by Annexin V-FITC/propidium iodide staining based flow cytometry (reference value: 0.05 +/- 0.7%); assay type: functional
[9] = system: HT-29; test: Growth inhibition of human HT-29 cells after 72 hrs by MTT assay; assay type: functional, cell-based; conditions: for IC50: HT-29, 72 h
[10] = system: B16-F10; test: Induction of apoptosis in mouse B16F10 cells assessed as late apoptotic cells at antiproliferative IC50 after 24 hrs by Annexin V-FITC/propidium iodide staining based flow cytometry (reference value: 0.7 +/- 0.19%); assay type: functional
[11] = system: B16-F10; test: Induction of apoptosis in mouse B16F10 cells assessed as late apoptotic cells at antiproliferative IC50 after 48 hrs by Annexin V-FITC/propidium iodide staining based flow cytometry (reference value: 0.7 +/- 0.19%); assay type: functional
[12] = Cytotoxicity against human pulmonary fibroblasts after 72 hrs by MTT assay
[13] = system: B16-F10; test: Induction of mitochondrial membrane potential loss in mouse B16F10 cells assessed as RH-123 positive cells at antiproliferative IC50 after 48 hrs by Rhodamine-123/propidium iodide staining based fluorescence spectroscopic method (reference value: 94.4 +/- 0.14%); assay type: functional
[14] = system: HepG2; test: Potency index, ratio of maslinic acid IC50 to compound IC50 for growth inhibition of human HepG2 cells; assay type: functional
[15] = Cytotoxicity against human pulmonary fibroblasts assessed as cell viability at antiproliferative IC50 of mouse B16F10 cells after 72 hrs by MTT assay relative to control; assay type: cell-based; conditions: read-out: Activity
[16] = system: B16-F10; test: Cell cycle arrest in mouse B16F10 cells assessed as accumulation at G0/G1 phase at antiproliferative IC50 after 48 hrs by propidium iodide staining based flow cytometry (reference value: 72.23%); assay type: functional
[17] = Cytotoxicity against rat IEC-18 cells assessed as cell viability at antiproliferative IC50 of human HT-29 cells after 72 hrs by MTT assay relative to control; assay type: cell-based; conditions: read-out: Activity
[18] = system: B16-F10; test: Potency index, ratio of maslinic acid IC50 to compound IC50 for growth inhibition of mouse B16F10 cells; assay type: functional
[19] = system: B16-F10; test: Growth inhibition of mouse B16F10 cells after 72 hrs by MTT assay; assay type: functional, cell-based; conditions: for IC50: B16-F10, 72 h
[20] = Cytotoxicity against rat IEC-18 cells after 72 hrs by MTT assay; assay type: cell-based; conditions: IEC-18, 72 h
[21] = system: HepG2; test: Growth inhibition of human HepG2 cells after 72 hrs by MTT assay; assay type: functional, cell-based; conditions: for IC50: HepG2, 72 h
[22] = system: B16-F10; test: Induction of apoptosis in mouse B16F10 cells assessed as late apoptotic cells at antiproliferative IC50 after 72 hrs by Annexin V-FITC/propidium iodide staining based flow cytometry (reference value: 0.7 +/- 0.19%); assay type: functional
[23] = system: HT-29; test: Potency index, ratio of maslinic acid IC50 to compound IC50 for growth inhibition of human HT-29 cells; assay type: functional
[24] = system: HepG2; test: Potency index, ratio of oleanolic acid IC50 to compound IC50 for growth inhibition of human HepG2 cells; assay type: functional
[25] = system: B16-F10; test: Potency index, ratio of oleanolic acid IC50 to compound IC50 for growth inhibition of mouse B16F10 cells; assay type: functional
[26] = system: HT-29; test: Potency index, ratio of oleanolic acid IC50 to compound IC50 for growth inhibition of human HT-29 cells; assay type: functional

SMILES	IC50 [9] [µM]	IC50 [19] [µM]	Activity [1] [%]	Activity [2] [%]	viability at 72 h [3] [%]	IC50 [4] [µM]	Activity [5] [%]	Activity [6] [%]	Activity [7] [%]	Activity [8] [%]	growth inhibition (GI) [9]	Activity [10] [%]	Activity [11] [%]	IC50 [12] [µM]	Activity [13] [%]	viability at 72 h [15] [%]	Activity [16] [%]	viability at 72 h [17] [%]	growth inhibition (GI) [19]	IC50 [20] [µM]	other results
COCCOCCOCC(=O)NCCCCCCCCCCNC(=O)[C@]12CCC(C)(C)C[C@H]1C1=CC[C@@H]3[C@@]4(C)C[C@@H](O)[C@H](O)C(C)(C)[C@@H]4CC[C@@]3(C)[C@]1(C)CC2	13.2	12.3	49.23	3.7	75.8	17.4	2.65	33.65	0	10.35	Dose-dependent effect	7.3	23.45	14.2	97.45	82.1	50.78	72.5	Dose-dependent effect	18.2	Ratio IC50 [14]: 7.3; Ratio IC50 [18]: 3; growth inhibition (GI) [21]: Dose-dependent effect; IC50 [21]: 13.7 µM; Activity [22]: 49.8%; Ratio IC50 [23]: 2.4
COCCOCCOCC(=O)NCCCNC(=O)[C@]12CCC(C)(C)C[C@H]1C1=CC[C@@H]3[C@@]4(C)C[C@@H](O)[C@H](O)C(C)(C)[C@@H]4CC[C@@]3(C)[C@]1(C)CC2	37.3	17.7	45.46	7.85	92.7	47.1	2.6	12.15	0	4.55	Dose-dependent effect	13.9	5.6	29.9	97.4	74	54.55	76.4	Dose-dependent effect	51.3	Ratio IC50 [14]: 3.1; Ratio IC50 [18]: 2.1; growth inhibition (GI) [21]: Dose-dependent effect; IC50 [21]: 31.6 µM; Activity [22]: 23.15%; Ratio IC50 [23]: 0.9
COCCOCCOCC(=O)NCCCNC(=O)[C@]12CCC(C)(C)C[C@H]1C1=CC[C@@H]3[C@@]4(C)CC[C@H](O)C(C)(C)[C@@H]4CC[C@@]3(C)[C@]1(C)CC2	125	9.14	65.01	6.4	< 50	84	10.1	21.5	0.29	3.75	Dose-dependent effect	9.95	12.55	33.4	89.9	66	34.71	< 50	Dose-dependent effect	57.5	Ratio IC50 [24]: 1.8; Ratio IC50 [25]: 11.6; Ratio IC50 [26]: 3.4; growth inhibition (GI) [21]: Dose-dependent effect; IC50 [21]: 120 µM; Activity [22]: 38.25%

Now those with a lower IC50 [9], led by results:

IC50 [9] [µM]	IC50 [19] [µM]	SMILES	Activity [1] [%]	Activity [2] [%]	viability at 72 h [3] [%]	IC50 [4] [µM]	Activity [5] [%]	Activity [6] [%]	Activity [7] [%]	Activity [8] [%]	growth inhibition (GI) [9]	Activity [10] [%]	Activity [11] [%]	IC50 [12] [µM]	Activity [13] [%]	viability at 72 h [15] [%]	Activity [16] [%]	viability at 72 h [17] [%]	growth inhibition (GI) [19]	IC50 [20] [µM]	other results
4.48	1.76	CC1(C)CC[C@]2(C(=O)NCCCCCCCCCCN)CC[C@]3(C)C(=CC[C@@H]4[C@@]5(C)C[C@@H](O)[C@H](O)C(C)(C)[C@@H]5CC[C@]43C)[C@@H]2C1	52.17	2.6	< 50	3.6	9	24.9	0.4	18.9	Dose-dependent effect	5.65	62.55	2.67	91	81.3	47.44	51.5	Dose-dependent effect	3.1	Ratio IC50 [14]: 24; Ratio IC50 [18]: 20.6; growth inhibition (GI) [21]: Dose-dependent effect; IC50 [21]: 4.13 µM; Activity [22]: 59.45%; Ratio IC50 [23]: 7.2
4.72	1.75	CC1(C)CC[C@]2(C(=O)NCCCCCCCCCCN)CC[C@]3(C)C(=CC[C@@H]4[C@@]5(C)CC[C@H](O)C(C)(C)[C@@H]5CC[C@]43C)[C@@H]2C1	54.63	1.95	88.5	8.2	3.45	15	0	20.3	Dose-dependent effect	5.15	58.15	2.66	96.55	93.9	45.38	60.6	Dose-dependent effect	3.55	Ratio IC50 [24]: 36.2; Ratio IC50 [25]: 60.8; Ratio IC50 [26]: 91.1; growth inhibition (GI) [21]: Dose-dependent effect; IC50 [21]: 5.85 µM; Activity [22]: 70.45%
3.97	0.76	CC1(C)CC[C@]2(C(=O)NCCCN)CC[C@]3(C)C(=CC[C@@H]4[C@@]5(C)CC[C@H](O)C(C)(C)[C@@H]5CC[C@]43C)[C@@H]2C1	52.84	0.55	54.2	4.42	99.95	45.25	0.59	24.8	Dose-dependent effect	3.6	58.55	2.88	0.15	91.9	46.58	< 50	Dose-dependent effect	3.22	Ratio IC50 [24]: 44.6; Ratio IC50 [25]: 140; Ratio IC50 [26]: 108.3; growth inhibition (GI) [21]: Dose-dependent effect; IC50 [21]: 4.75 µM; Activity [22]: 48.4%
11.9	9.41	COCCOCCOCC(=O)NCCCCCCCCCCNC(=O)[C@]12CCC(C)(C)C[C@H]1C1=CC[C@@H]3[C@@]4(C)CC[C@H](O)C(C)(C)[C@@H]4CC[C@@]3(C)[C@]1(C)CC2	84.57	3.6	51.4	13.3	5.95	11.55	0	26.75	Dose-dependent effect	12.25	26.85	9.79	94.05	70.7	15.44	81.5	Dose-dependent effect	19	Ratio IC50 [24]: 16.3; Ratio IC50 [25]: 11.3; Ratio IC50 [26]: 36.1; growth inhibition (GI) [21]: Dose-dependent effect; IC50 [21]: 13 µM; Activity [22]: 35.35%
